Consider 23 compounds from ChEMBL document CHEMBL1139274, “Synthesis and evaluation of electron-rich curcumin analogues” (Bioorg Med Chem, 2009).

Test [1] deals with MCF7. Put plainly: Antiproliferative activity against human MCF7 cells after 72 hrs by MTS-PMS assay. The following applies: MCF7, 72 h. It is filed as functional, cell-based. Background: Tetrazolium dyes change colour on reduction, which living cells bring about.
Test [2] deals with SK-BR-3. In words: Antiproliferative activity against human SKBR3 cells after 72 hrs by MTS-PMS assay. The test is classed as functional, cell-based. The conditions noted are these: SK-BR-3, 72 h.

What is called IC50 is the concentration needed to halve the response being measured. A low value points to greater potency in that assay.

As for `CCOC(=O)CCC(C(=O)/C=C/c1ccc(O)c(OC)c1)C(=O)/C=C/c1ccc(O)c(OC)c1`, the IC50 in test [1] is 1.96 µM; in test [2] it was 4.38 µM.
The matching figures for `COc1ccc(/C=C/C(=O)CC(=O)/C=C/c2ccc(OC)c(OC)c2)cc1OC` [TETRAMETHOXYCURCUMIN]: 1.07 µM and 0.955 µM.
For `COc1ccc(/C=C/c2cc(/C=C/c3ccc(OC)c(OC)c3)on2)cc1OC`, in that order: 59.5 µM and over 100 µM.
The matching figures for `COC(=O)/C=C/C(C(=O)/C=C/c1ccc(OC)c(OC)c1)C(=O)/C=C/c1ccc(OC)c(OC)c1`: 0.512 µM and 0.564 µM.
With `CCOC(=O)CCc1c(/C=C/c2ccc(OC)c(OC)c2)n[nH]c1/C=C/c1ccc(OC)c(OC)c1`, the IC50 in test [1] came out at 10.1 µM; in test [2], 11.7 µM.
The matching figures for `COc1cc(/C=C/c2cc(/C=C/c3ccc(O)c(OC)c3)on2)ccc1O`: 1.76 µM and 4 µM.
Consider `CCOC(=O)CCc1c(/C=C/c2ccc(O)c(OC)c2)n[nH]c1/C=C/c1ccc(O)c(OC)c1`, for which the figures for the 50% inhibitory concentration (IC50) in test [1] and in test [2] were 6.01 µM and 5.6 µM, respectively.
For `COc1cc(/C=C/c2cc(/C=C/c3ccc(O)c(OC)c3)[nH]n2)ccc1O` [CURCUMIN PYRAZOLE], in that order: 4.19 µM and 0.258 µM.
For `CCOC(=O)/C=C/C(C(=O)/C=C/c1ccc(OC)c(OC)c1)C(=O)/C=C/c1ccc(OC)c(OC)c1`, in that order: 1.28 µM and 1.96 µM.
For `COc1ccc(/C=C/c2cc(/C=C/c3ccc(OC)c(OC)c3)[nH]n2)cc1OC`, in that order: 12.7 µM and 1.58 µM.
For the compound `CCOC(=O)CCc1c(/C=C/c2ccc(O)c(OC)c2)noc1/C=C/c1ccc(O)c(OC)c1`, the IC50 was 13.2 µM in test [1] and 13.9 µM in test [2].
The matching figures for `CCOC(=O)CCC(C(=O)/C=C/c1ccc(OC)c(OC)c1)C(=O)/C=C/c1ccc(OC)c(OC)c1`: over 100 µM and over 100 µM.
The matching figures for `COc1ccc(/C=C/c2n[nH]c(/C=C/c3ccc(OC)c(OC)c3)c2C)cc1OC`: 8.16 µM and over 100 µM.
The matching figures for `COc1ccc(/C=C/c2noc(/C=C/c3ccc(OC)c(OC)c3)c2C)cc1OC`: 55.7 µM and 42.5 µM.
For `CCOC(=O)CCc1c(/C=C/c2ccc(OC)c(OC)c2)noc1/C=C/c1ccc(OC)c(OC)c1`, the IC50 in test [1] and in test [2] was over 100 µM each time.
As for `COC(=O)/C=C/c1c(/C=C/c2ccc(OC)c(OC)c2)n[nH]c1/C=C/c1ccc(OC)c(OC)c1`, the concentration for half-maximal inhibition (IC50) in test [1] was 49.5 µM; in test [2], over 100 µM.
For `COc1cc(/C=C/C(=O)CC(=O)/C=C/c2ccc(O)c(OC)c2)ccc1O` [CURCUMIN], in that order: 5.58 µM and 2.11 µM.
The matching figures for `COc1ccc(/C=C/C(=O)C(C)C(=O)/C=C/c2ccc(OC)c(OC)c2)cc1OC`: 1.09 µM and 1.02 µM.
As to `COc1ccc(/C=C/C(=O)C(/C=C/C(N)=O)C(=O)/C=C/c2ccc(OC)c(OC)c2)cc1OC`, the IC50 in test [1] was determined as 5.35 µM; in test [2], 9.83 µM.
For `COc1ccc(/C=C/c2n[nH]c(/C=C/c3ccc(OC)c(OC)c3)c2/C=C/CO)cc1OC`, in that order: over 100 µM and over 100 µM.
The matching figures for `CCOc1ccc(/C=C/c2n[nH]c(/C=C/c3ccc(OCC)c(OC)c3)c2/C=C/C(=O)OC)cc1OC`: 11.4 µM and 5.99 µM.
The matching figures for `COc1ccc(/C=C/C(=O)C(/C=C/CO)C(=O)/C=C/c2ccc(OC)c(OC)c2)cc1OC`: 0.796 µM and 1.24 µM.
As to `COc1ccc(/C=C/c2n[nH]c(/C=C/c3ccc(OC)c(OC)c3)c2/C=C/C(N)=O)cc1OC`, the results for the IC50 in test [1] and in test [2] were 39.9 µM and 52.6 µM, respectively.
